Marks after values point to notes of the source that are not given here.
What was measured:
Ishikawa cells = assay: Ishikawa Cell Alkaline Phosphatase Assay; format: cell-based, human; conditions: for % Activation: percent of response related to 1 nM 17β-estradiol, 48 h
Procedure: Cells were treated for 48 h prior to assay. […] Sample population for at each dose was n=8. […] Plates are placed at -80°C for a minimum of 15 minutes. Plates are thawed at 37°C followed by the addition of 150μL of 0.1 M Tris-HCl, pH 9.8, containing 4 mM para-nitrophenylphosphate (pNPP) to each well (final concentration. 3 mM pNPP). Absorbance and slope calculations were made using the […] Application program (Bio-Tek Instruments, Inc., Winooski, VT). […] Various compounds were assayed for estrogenic activity by the alkaline phosphatase method and corresponding ED50 values (95% C.I.) were calculated. The four listed in the following were used as as reference standards: A description of these methods is described by Holinka, […]., Kuramoto, H. and Gurpide, E. (1986) Effects of steroid hormones and antisteroids on alkaline phosphatase activity in human endometrial cancer cells (Ishikawa Line). Cancer Research, 46:2771-2774, and by […]. and […] simple and sensitive microtiter plate estrogen bioassay based on stimulation alkaline phosphatase in Ishikawa cells; […] Endocrinology, 6:2757-2762.

Ovariectomized Rat = assay: 6-Week Ovariectomized Rat Model; format: in vivo; conditions: ovx rats, daily x7 days/week, mean; for BMD L4 / BMD Proximal Tibia: following 5 weeks of treatment; for Body Weight / Cholesterol / Uterine Weight: following 6 weeks of treatment
From the text: Female Sprague Dawley CD rats, ovx or sham ovx, were obtained 1 day after surgery from Taconic Farm (weight range 240 - 275 g). They were housed 3 or 4 rats/cage in a room on a 14/10 (light/dark) schedule and provided with food (Purina 500 rat chow) and water ad libitum. Treatment for all studies began 1 day after the animals arrival and dosed 5 or 7 days per week as indicated for 6 weeks. A group of age matched sham operated rats not receiving any treatment served as an intact, estrogen replete control group for each study. All treatments were prepared in 1% tween 80 in normal saline at defined concentrations so that the treatment volume was 0.1mL/100g body weight. 17-beta estradiol was dissolved in corn oil (20 uG/mL) and delivered subcutaneously, 0.1 mL/rat. All dosages were adjusted at three week intervals according to group mean body weight measurements.
Five weeks after the initiation of treatment and one week prior to the termination of the study, each rat was evaluated for bone mineral density (BMD). The BMD's of the proximal tibiae (PT) and fourth lumbar vertabrae (L4) were measured in anesthetized rats using a dual energy X-ray absorptiometer (Eclipse XR-26, Norland Corp. Ft. Atkins, WI). The dual energy X-ray absorptiometer (DXA) measurements for each rat were performed as follows: Fifteen minutes prior to DXA measurements, the rat was anesthetized with an intraperitoneal injection of 100 mg/kg ketamine (Bristol Laboratories, Syracuse, NY) and 0.75 mg/kg acepromazine (Aveco, Ft.Dodge, IA). The rat was placed on an acrylic table under the DXA scanner perpendicular to its path; the limbs were extended and secured with paper tape to the surface of the table. A preliminary scan was performed at a scan speed of 50 mm/second with a scan resolution of 1.5 mm X 1.5 mm to determine the region of interest in PT and L4. Small subject software was employed at a scan speed of 10mm/second with resolution of 0.5 mm X 0.5 mm for final BMD measurements. The software allows the operator to define a 1.5 cm wide area to cover the total length of L4. The BMDs for respective sites were computed by the software as a function of the attenuation of the dual beam (46.8 KeV and 80 KeV) X-ray generated by the source underneath the subject and the detector travelling along the defined area above the subject. The data for BMD values (expressed in g/cm2) and individual scans were stored for statistical analysis. One week after BMD evaluation the rats were sacrificed by carbon dioxide suffocation and blood collected for cholesterol determination. The uteri were removed and the weights taken. Total cholesterol is determined using a Boehringer-Mannheim Hitachi 911 clinical analyzer using the Cholesterol/HP kit. Statitstics were compared using one-way analysis of variance with Dunnet's test.

[1] = with 1 nM 17β-estradiol (antiestrogen test)

Compound	% Activation (Ishikawa cells; compound alone)	% Activation (Ishikawa cells; [1])	BMD L4 (Ovariectomized Rat; 0.3mg/kg, p.o.) [mg/cm^2]	BMD Proximal Tibia (Ovariectomized Rat; 0.3mg/kg, p.o.)	Body Weight (Ovariectomized Rat; 0.3mg/kg, p.o.) [g]	Cholesterol (Ovariectomized Rat; 0.3mg/kg, p.o.)	Uterine Weight (Ovariectomized Rat; 0.3mg/kg, p.o.) [mg]	BMD L4 (Ovariectomized Rat; 3mg/kg, p.o.) [mg/cm^2]	BMD Proximal Tibia (Ovariectomized Rat; 3mg/kg, p.o.)	Body Weight (Ovariectomized Rat; 3mg/kg, p.o.)	Cholesterol (Ovariectomized Rat; 3mg/kg, p.o.)	Uterine Weight (Ovariectomized Rat; 3mg/kg, p.o.)	EC50 (Ishikawa cells; Homo sapiens, Ishikawa, estrogenic activity by the alkaline phosphatase method, reference standards, read-out: ED50 values (95% C.I.)) [nM]	Body Weight (Ovariectomized Rat; 2µg/rat, s.c.)
Cc1c(-c2ccc(O)cc2)n(Cc2ccc(OCCN3CCCCCC3)cc2)c2ccc(O)cc12 [Example No. 98, 1-[4-(2-Azepan-1-yl-ethoxy)-benzyl]-2-(4-hydroxy-phenyl)-3-methyl-1H-indol-5-ol]	1% activity (1% with 1 nM 17β-estradiol)	1% activity (1% with 1 nM 17β-estradiol)	0.173	0.210** mg/cm^2	46.8	59.0** mg/dl	149.3	–	–	–	–	–	–	–
O=C(c1ccc(OCCN2CCCCC2)cc1)c1c(-c2ccc(O)cc2)sc2cc(O)ccc12 [raloxifene]	5% activity (5% with 1 nM 17β-estradiol)	5% activity (5% with 1 nM 17β-estradiol)	–	–	–	–	–	0.170	0.207** mg/cm^2	25.3** g	55.0** mg/dl	191.6** mg	–	–
C[C@]12CC[C@@H]3c4ccc(O)cc4CC[C@H]3[C@@H]1CC[C@@H]2O [17β-estradiol]	[…]	–	–	–	–	–	–	–	–	–	–	–	[…]	33.1** g
